The values that follow come from ChEMBL document CHEMBL4699634, “Series of Novel and Highly Potent Cyclic Peptide PCSK9 Inhibitors Derived from an mRNA Display Screen and Optimized via Structure-Based Design” (J Med Chem, 2020).

Broadly, the AUC(0-inf) is the area under the concentration-time curve extrapolated to infinity. For orientation: AUC means the area under the concentration-time curve, a measure of exposure. As a reminder, the clearance is the volume of plasma or blood freed of the substance per unit of time. In general, half-life refers to the time needed for the level to fall by half in the phase considered. Usually Ki stands for the equilibrium dissociation constant of an inhibitor or competing ligand from its target.

A short description of data set [1]: AUC (0 to infinity) in C57BL/6 mouse at 1 mg/kg, iv by LC-MS/MS analysis. More on the design: route intravenous, time infinity, dose 1 mg/kg. The settings on record: C57BL/6, mouse, in vivo. The data set is classed as ADME, organism-based.
Data set [2] in a line: AUC (0 to X) in C57BL/6 mouse at 1 mg/kg, iv by LC-MS/MS analysis. In kind it is ADME, organism-based. The settings on record: in vivo. More on the design: dose 1 mg/kg.
Data set [3] is described as follows: Clearance in C57BL/6 mouse at 1 mg/kg, iv by LC-MS/MS analysis. To be noted: in vivo. The data set is classed as ADME, organism-based.
Data set [4] can be described thus: Volume of distribution at steady state in C57BL/6 mouse at 1 mg/kg, iv by LC-MS/MS analysis. The data set is classed as ADME, organism-based. The settings on record: in vivo, read-out: Vdss.
The nature of data set [5]: Half life in C57BL/6 mouse at 1 mg/kg, iv by LC-MS/MS analysis. In kind it is ADME, organism-based. The settings on record: in vivo.
Data set [6] in a line: Protein binding in mouse plasma at 2.5 uM measured after 4 hrs by equilibrium dialysis based LC-MS/MS analysis. In kind it is ADME, cell-free. To be noted: read-out: PPB (converted). (In general: In equilibrium dialysis only unbound substance equilibrates across the membrane.)
A further data set addresses Chymotrypsinogen A (Bos taurus, UniProt P00766). Description: Enzymatic stability assessed as bovine pancreatic alpha-chymotrypsin-mediated compound hydrolysis by measuring parent compound remaining at 100 uM incubated for 1 hr by LC-MS/MS analysis. In kind it is ADME. The settings on record: cattle, read-out: Stabilty.
Data set [7] deals with Chymotrypsin-like elastase family member 1 (Sus scrofa, UniProt P00772). The data set is described as follows: Enzymatic stability assessed as porcine type 4 pancreatic elastase-mediated compound hydrolysis by measuring parent compound remaining at 100 uM incubated for 1 hr by LC-MS/MS analysis. The data set is classed as ADME. The settings on record: pig, read-out: Stabilty.
Chain of Chymotrypsin-like elastase family member 1 (P00772 whole entry): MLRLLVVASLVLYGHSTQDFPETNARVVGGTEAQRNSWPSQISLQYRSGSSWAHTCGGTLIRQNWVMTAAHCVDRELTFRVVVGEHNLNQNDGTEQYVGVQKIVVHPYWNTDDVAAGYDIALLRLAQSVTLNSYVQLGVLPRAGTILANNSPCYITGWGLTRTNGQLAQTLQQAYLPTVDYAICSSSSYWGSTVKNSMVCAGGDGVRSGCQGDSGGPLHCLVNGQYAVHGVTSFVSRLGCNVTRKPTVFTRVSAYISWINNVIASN

A short description of data set [8]: Enzymatic stability assessed as porcine pepsin-mediated compound hydrolysis by measuring parent compound remaining at 100 uM incubated for 1 hr by LC-MS/MS analysis. The data set is classed as ADME, Sus scrofa. The settings on record: pig, read-out: Stabilty.
Data set [9] in a line: Enzymatic stability assessed as bovine pancreatic trypsin-mediated compound hydrolysis by measuring parent compound remaining at 100 uM incubated for 1 hr by LC-MS/MS analysis. The data set is classed as ADME, Bos taurus. To be noted: cattle, read-out: Stabilty.
Data set [10] in a line: Half life in C57BL/6 mouse whole blood at 100 uM by LC-MS/MS analysis. In kind it is ADME, tissue-based.
Data set [11] deals with Proprotein convertase subtilisin/kexin type 9 (Homo sapiens, UniProt Q8NBP7). Description: Inhibition of AlexaFluor647-tagged cyclic peptide binding to avi-tagged-biotinylated human PCSK9 measured after 2 hrs by Lance Streptavidin Europium based FRET assay.
Chain of Proprotein convertase subtilisin/kexin type 9 (Q8NBP7 31-152 limits assumed): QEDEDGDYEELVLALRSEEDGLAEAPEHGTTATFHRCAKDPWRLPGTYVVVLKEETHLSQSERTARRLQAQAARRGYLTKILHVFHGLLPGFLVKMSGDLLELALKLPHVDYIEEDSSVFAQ
Chain of Proprotein convertase subtilisin/kexin type 9 (Q8NBP7 153-692 limits assumed): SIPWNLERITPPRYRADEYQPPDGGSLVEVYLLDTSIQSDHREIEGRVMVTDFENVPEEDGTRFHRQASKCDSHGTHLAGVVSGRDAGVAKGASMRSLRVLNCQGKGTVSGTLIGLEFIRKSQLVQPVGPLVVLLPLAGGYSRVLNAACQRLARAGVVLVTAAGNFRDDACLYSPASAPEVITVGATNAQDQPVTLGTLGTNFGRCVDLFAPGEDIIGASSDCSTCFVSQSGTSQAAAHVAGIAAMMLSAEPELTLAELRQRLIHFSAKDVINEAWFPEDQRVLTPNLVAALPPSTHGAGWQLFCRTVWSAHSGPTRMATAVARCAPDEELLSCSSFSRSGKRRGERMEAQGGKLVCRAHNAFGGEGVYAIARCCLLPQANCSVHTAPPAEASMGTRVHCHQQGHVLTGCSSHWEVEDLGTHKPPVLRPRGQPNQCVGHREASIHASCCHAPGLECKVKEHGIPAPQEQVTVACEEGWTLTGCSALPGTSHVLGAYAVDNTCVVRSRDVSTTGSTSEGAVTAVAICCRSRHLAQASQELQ
Data set [12] is described as follows: Induction of mast cell degranulation in Wistar rat isolated peritoneal cells assessed as effect on histamine release measured after 30 mins. The data set is classed as tissue-based. The settings on record: mast cell.
The nature of data set [13]: Cytotoxicity against Wistar rat isolated peritoneal cells assessed as reduction in cell viability up to 60 uM measured after 30 mins. The data set is classed as cell-based. The settings on record: peritoneal macrophage cell, 0.5 h.
The nature of data set [14]: AUC (0 to infinity) in Wistar Han rat at 1 mg/kg, iv by LC-MS/MS analysis. In kind it is ADME, organism-based. More on the design: route intravenous, time infinity, dose 1 mg/kg. The settings on record: in vivo.
Data set [15] can be described thus: AUC (0 to X) in Wistar Han rat at 1 mg/kg, iv by LC-MS/MS analysis. In kind it is ADME, organism-based. On the set-up: dose 1 mg/kg. To be noted: in vivo.
Data set [16] is described as follows: Clearance in Wistar Han rat at 1 mg/kg, iv by LC-MS/MS analysis. In kind it is ADME, organism-based. To be noted: in vivo.
Data set [17] is described as follows: Volume of distribution at steady state in Wistar Han rat at 1 mg/kg, iv by LC-MS/MS analysis. The data set is classed as ADME, organism-based. The settings on record: in vivo, read-out: Vdss.
Data set [18] can be described thus: Half life in Wistar Han rat at 1 mg/kg, iv by LC-MS/MS analysis. In kind it is ADME, organism-based. To be noted: in vivo.
Data set [19] in a line: Protein binding in Wistar Han rat plasma. The data set is classed as ADME, cell-free. To be noted: read-out: PPB (converted).
Data set [20] is described as follows: Half life in cynomolgus monkey whole blood at 100 uM by LC-MS/MS analysis. In kind it is ADME, tissue-based, Macaca fascicularis.
Data set [21] in a line: AUC (0 to infinity) in cynomolgus monkey at 0.5 mg/kg, iv by LC-MS/MS analysis. More on the design: time infinity, route intravenous, dose 0.5 mg/kg. The settings on record: in vivo. The data set is classed as ADME, organism-based, Macaca fascicularis.
The nature of data set [22]: AUC (0 to X) in cynomolgus monkey at 0.5 mg/kg, iv by LC-MS/MS analysis. The data set is classed as ADME, organism-based, Macaca fascicularis. On the set-up: dose 0.5 mg/kg. The settings on record: in vivo.
Data set [23] can be described thus: Clearance in cynomolgus monkey at 0.5 mg/kg, iv by LC-MS/MS analysis. In kind it is ADME, organism-based, Macaca fascicularis. The settings on record: in vivo.
A short description of data set [24]: Volume of distribution at steady state in cynomolgus monkey at 0.5 mg/kg, iv by LC-MS/MS analysis. In kind it is ADME, organism-based, Macaca fascicularis. The settings on record: in vivo, read-out: Vdss.
Data set [25] is described as follows: Half life in cynomolgus monkey at 0.5 mg/kg, iv by LC-MS/MS analysis. The data set is classed as ADME, organism-based, Macaca fascicularis. The settings on record: in vivo.
Data set [26] is described as follows: Protein binding in cynomolgus monkey plasma. In kind it is ADME, cell-free, Macaca fascicularis. To be noted: read-out: PPB (converted).

Each structure is given as a SMILES string. Numbered stars: 1 amine (or outer) side, 2 acyl side, 3 side chain; on linkers, the order of the positions; unused ones are H or OH. Square brackets hold non-standard residues; d marks the D form. Peptide text beside a SMILES is read from it. Trp(5-F) = N[C@@H](Cc1c[nH]c2ccc(F)cc12)C(=O)O; Lys(Me3) = C[N+](C)(C)CCCC[C@H](N)C(=O)O; X1 = O=C(CCSCc1cccc(CSCCN[*:1])c1)[*:2]; αMeP = C[C@@]1(C(=O)O)CCCN1

With `COc1ccc(C[C@@H]2NC(=O)[C@H](Cc3cnc[nH]3)NC(=O)[C@H](CC(=O)O)NC(=O)[C@H](Cc3c[nH]c4ccc(F)cc34)NC(=O)[C@H](Cc3c[nH]c4ccc(F)cc34)NC(=O)[C@@H](C)NC(=O)[C@H](CCCC[N+](C)(C)C)NC(=O)CCSCc3cccc(c3)CSCCNC(=O)[C@]3(C)CCCN3C2=O)cc1` (cyclo(DHY(Me)[αMeP][X1][Lys(Me3)][dA][Trp(5-F)][Trp(5-F)])), the AUC(0-inf) amounted to 0.933 µM·h in data set [1] and 3.65 µM·h in data set [14] (Wistar Han). Further, the AUC in data set [2] stood at 0.896 µM·h; in data set [15], 3.65 µM·h. Moreover, the clearance was determined as 6.2 mL/min/kg in [3] and 3.16 mL/min/kg in data set [16]. In addition, the Vd came out at 0.45 L/kg in data set [4] and 0.17 L/kg in data set [17]. Besides, the half-life was 1.16 h in data set [5] and 2.46 h in data set [18]. The fraction unbound at 4 h, 2.5 µM in data set [6] was 0.007. Besides, the remaining at 1 h, 100 µM at Chymotrypsinogen A came to 24.2%; in [7] it was 68.2%; in data set [8], 87.5%; in data set [9], 98.4%. Further, the half-life at 100 µM in data set [10] was > 6 h. In addition, the Ki in data set [11] amounted to 9.5 nM. In data set [12], the EC50 result is “Non-Toxic”. For the same molecule, in data set [13], the Activity result was “Non-Toxic”. Also, the fraction unbound in data set [19] was 0.001.

Take `COc1ccc(C[C@@H]2NC(=O)[C@H]([C@@H](C)O)NC(=O)[C@@H]3CCCN3C(=O)[C@@H]3Cc4cn(c5ccc(F)cc45)Cc4cn(nn4)-c4cc(cc(c4)CSCCC(=O)N[C@@H](C)C(=O)N[C@H](C)C(=O)N[C@@H](Cc4c[nH]c5ccc(F)cc45)C(=O)N3)CSCCNC(=O)[C@]3(C)CCCN3C2=O)cc1`: the remaining at 1 h, 100 µM on Chymotrypsinogen A was determined as 91.8%; in data set [7], 96.6%; in data set [8], 98.9%; in data set [9], 99.2%. In addition, the half-life at 100 µM in data set [20] is > 6 h. The affinity in [11], expressed as Ki, was 1.36 nM. For the same molecule, the AUC came to 0.0233 µM·h in data set [14], 0.0194 µM·h in data set [15] and 0.304 µM·h in data set [22]. Besides, the Vd in [17] amounted to 0.48 L/kg; in [24], 1.06 L/kg. In addition, the values for the half-life in data set [18] and in data set [25] were 0.06 h and 2.84 h, respectively. Besides, the results for the fraction unbound in data set [19] and in data set [26] were 0.003 and 0.025, respectively. Also, in data set [21], the AUC(0-inf) came to 0.306 µM·h. Besides, the clearance in [23] amounted to 20.1 mL/min/kg.
